Like-named read-outs stand apart in the source and are kept apart here.
How the values were obtained:
μ-receptor [1] = target: T1, μ-receptor (Homo sapiens (Human), UniProt P35372); assay: Receptor binding, competitive displacement of [3H]DAMGO; conditions: 0.25 nM [3H]DAMGO, CHO cell membrane protein, 60 min at 25° C.
Procedure, shortened: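 Ki derived via Cheng-Prusoff from IC50 (log-probit fit) of displacement of 0.25 nM [3H]DAMGO, 12 concentrations, from human μ-receptor in CHO cell membranes. Binding: 50 mM Tris-HCl pH 7.5, 25 °C, 60 min, 10 μM naloxone defining nonspecific, filter-bound radioactivity counted.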

Male Sprague-Dawley rats [2] = conditions: maximum pCO2 within 2 hours of administration, rat; for <60 mmHg @ 10X CFA MEMD: dose 10× CFA MEMD
Male Sprague-Dawley rats [3] = assay: animal or person; format: in vivo, rat; conditions: rat, read-out: MEMD SC CFA
human μ opioid receptor = human μ opioid receptor (Homo sapiens (Human), UniProt P35372); assay: Functional activity ([35S]GTPγS binding); format: biochemical; conditions: [35S]GTPγS 0.080 nM, CHO cell membranes, 60 min at 30° C., filtration
Procedure, shortened: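 Membranes from stably transfected CHO cells (7.5 μg) incubated with 12 test-compound concentrations and 0.080 nM [35S]GTPγS in 50 mM Tris-HCl pH 7.4, 3 mM MgCl2, 0.2 mM EGTA, 3 μM GDP, 100 mM NaCl, 60 min at 30° C. Nonspecific binding defined with 10 μM GTPγS; bound label collected by filtration and scintillation counting.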

μ-receptor [4] = target: T1, μ-receptor; assay: Alternate receptor binding assay, competitive displacement of [3H]DAMGO; conditions: alternate assay: 0.8 nM [3H]DAMGO, 5 mM MgCl2, CHO cell membrane protein, 120 min
[5] = dose 100× CFA MEMD, subcutaneous
[6] = sc, minimum dose at which maximal reversal of hind paw weight bearing (50±0.5%) was achieved, subcutaneous administration

Compound | Ki (μ-receptor [1]) | <60 mmHg @ 10X CFA MEMD (Male Sprague-Dawley rats [2]; subcutaneous) | <60 mmHg @ 100X CFA MEMD (Male Sprague-Dawley rats [2]; [5]) | minimal effective dose (Male Sprague-Dawley rats [3]; [6]) | EC50 (human μ opioid receptor) | Ki (μ-receptor [4]) | <60 mmHg @ 100X CFA MEMD (Male Sprague-Dawley rats [2]; dosed at 10 mg/kg) | minimal effective dose (Male Sprague-Dawley rats [3]; po, minimum dose at which maximal reversal of hind paw weight bearing was achieved, dosed orally)
COC1(c2ccnc(C(N)=O)c2)C2CCCC1CN(CC1CCOCC1)C2.Cl [Compound 127, 4-((1R,5S,9r)-9-methoxy-3-((tetrahydro-2H-pyran-4-yl)methyl)-3-azabicyclo[3.3.1]nonan-9-yl)picolinamide hydrochloride] | 1 to 5 nM | + (resulted in a maximum pCO2 value of less than 60 mmHg within 2 hours of administration) | + (resulted in a maximum pCO2 value of less than 60 mmHg within 2 hours of administration) | 0.1 mg/kg | 10 to 75 nM | – | – | –
COC1(c2ccnc(C(N)=O)c2)C2CCCC1CN([C@H]1CCOC1)C2.Cl (stereo partly drawn) [Compound 79, 4-((1R,5S,9R)-9-methoxy-3-((R)-tetrahydrofuran-3-yl)-3-azabicyclo[3.3.1]nonan-9-yl)picolinamide hydrochloride] | 1 to 5 nM | + (resulted in a maximum pCO2 value of less than 60 mmHg within 2 hours of administration) | − (resulted in a maximum pCO2 value of greater than 60 mmHg within 2 hours of administration) | 0.3 mg/kg | 10 to 75 nM | – | – | –
COC1(c2ccnc(C(N)=O)c2)C2CCCC1CN(Cc1c[nH]c3ccccc13)C2.Cl [Compound 126, 4-((1R,5S,9r)-3-((1H-indol-3-yl)methyl)-9-methoxy-3-azabicyclo[3.3.1]nonan-9-yl)picolinamide hydrochloride] | < 1 nM | − (resulted in a maximum pCO2 value of greater than 60 mmHg within 2 hours of administration) | – | 0.1 mg/kg | < 10 nM | – | – | –
COC1(c2ccnc(C(N)=O)c2)C2CCCC1CN(CC1(F)CCOCC1)C2 (stereo not drawn) [Compound 198] | – | – | – | – | – | > 5 nM | – | –
COC1(c2cccc(C(N)=O)c2)C2CCCC1CN(CC1CC1)C2.Cl [Compound 22, 3-((1R,5S,9r)-3-(cyclopropylmethyl)-9-methoxy-3-azabicyclo[3.3.1]nonan-9-yl)benzamide hydrochloride] | < 1 nM | + (resulted in a maximum pCO2 value of less than 60 mmHg within 2 hours of administration) | − (resulted in a maximum pCO2 value of greater than 60 mmHg within 2 hours of administration) | 0.1 mg/kg | < 10 nM | – | – | –
COC1(c2ccnc(C(N)=O)c2)C2CCCC1CN(C1CCC3(CC1)COC3)C2.O=C(O)CC(O)C(=O)O [Compound 158, 4-((1R,5S,9r)-9-methoxy-3-(2-oxaspiro[3.5]nonan-7-yl)-3-azabicyclo[3.3.1]nonan-9-yl)picolinamide (S)-2-hydroxysuccinate] | 1 to 5 nM | + (resulted in a maximum pCO2 value of less than 60 mmHg within 2 hours of administration) | + (resulted in a maximum pCO2 value of less than 60 mmHg within 2 hours of administration) | 0.1 mg/kg | 10 to 75 nM | – | – | –
CCCN1CC2CCCC(C1)C2(OC)c1ccnc(C(N)=O)c1.Cl [Compound 91, 4-((1R,5S,9r)-9-methoxy-3-propyl-3-azabicyclo[3.3.1]nonan-9-yl)picolinamide hydrochloride] | 1 to 5 nM | – | – | – | 10 to 75 nM | – | + (dosed at 10 mg/kg) (resulted in a maximum pCO2 value of less than 60 mmHg within 2 hours of administration) | 3 mg/kg
COC1(c2cccc(C(N)=O)c2)C2CCCC1CN(CC1(O)CC1)C2.Cl [Compound 46, 3-((1R,5S,9r)-3-((1-hydroxycyclopropyl)methyl)-9-methoxy-3-azabicyclo[3.3.1]nonan-9-yl)benzamide hydrochloride] | < 1 nM | + (resulted in a maximum pCO2 value of less than 60 mmHg within 2 hours of administration) | – | 1 mg/kg | 10 to 75 nM | – | – | –
COC1(c2ccnc(C(N)=O)c2)C2CCCC1CN(CC1CC1)C2.Cl [Compound 27, 4-((1R,5S,9r)-3-(cyclopropylmethyl)-9-methoxy-3-azabicyclo[3.3.1]nonan-9-yl)picolinamide hydrochloride] | 1 to 5 nM | – | + (resulted in a maximum pCO2 value of less than 60 mmHg within 2 hours of administration) | 0.01 mg/kg | 10 to 75 nM | – | – | –
COC1(c2cccc(C(N)=O)c2)C2CCCC1CN(CC1CCOCC1)C2.Cl [Compound 122, 3-((1R,5S,9r)-9-methoxy-3-((tetrahydro-2H-pyran-4-yl)methyl)-3-azabicyclo[3.3.1]nonan-9-yl)benzamide hydrochloride] | 1 to 5 nM | + (resulted in a maximum pCO2 value of less than 60 mmHg within 2 hours of administration) | – | 0.3 mg/kg | 10 to 75 nM | – | – | –
COC1(c2ccnc(C(N)=O)c2)C2CCCC1CNC2.Cl [Compound 70, 4-((1R,5S,9r)-9-methoxy-3-azabicyclo[3.3.1]nonan-9-yl)picolinamide hydrochloride] | 1 to 5 nM | + (resulted in a maximum pCO2 value of less than 60 mmHg within 2 hours of administration) | + (resulted in a maximum pCO2 value of less than 60 mmHg within 2 hours of administration) | 1 mg/kg | > 75 nM | – | – | –
COC1(c2ccnc(C(N)=O)c2)C2CCCC1CN([C@@H]1CCCOC1)C2.Cl (stereo partly drawn) [Compound 60, 4-((1R,5S,9R)-9-methoxy-3-((R)-tetrahydro-2H-pyran-3-yl)-3-azabicyclo[3.3.1]nonan-9-yl)picolinamide hydrochloride] | 1 to 5 nM | + (resulted in a maximum pCO2 value of less than 60 mmHg within 2 hours of administration) | + (resulted in a maximum pCO2 value of less than 60 mmHg within 2 hours of administration) | 0.3 mg/kg | > 75 nM | – | – | –
COC1(c2ccnc(C(N)=O)c2)C2CCCC1CN(C)C2.Cl [Compound 43, 4-((1R,5S,9r)-9-methoxy-3-methyl-3-azabicyclo[3.3.1]nonan-9-yl)picolinamide hydrochloride] | < 1 nM | + (resulted in a maximum pCO2 value of less than 60 mmHg within 2 hours of administration) | + (resulted in a maximum pCO2 value of less than 60 mmHg within 2 hours of administration) | 0.1 mg/kg | 10 to 75 nM | – | – | –
COC1(c2ccnc(C(N)=O)c2)C2CCCC1CN(Cc1cn(C)cn1)C2.Cl [Compound 123, 4-((1R,5S,9r)-9-methoxy-3-((1-methyl-1H-imidazol-4-yl)methyl)-3-azabicyclo[3.3.1]nonan-9-yl)picolinamide hydrochloride] | 1 to 5 nM | + (resulted in a maximum pCO2 value of less than 60 mmHg within 2 hours of administration) | – | 1 mg/kg | 10 to 75 nM | – | – | –

Source: patent US10604489B2, “Compounds for the treatment of pain” (priority 2018, dated 2020)
